In US20110065788A1, “AQUEOUS FORMULATIONS OF (2-HYDROXYMETHYL-INDANYL-4-OXY)-PHENYL-4,4,4-TRIFLUOROBUTANE-1-SULFONATE” (BAYER SCHERING PHARMA AKTIENGESELLSCHAFT, priority 2002, published 2011) one finds solubility data, which are given here for one compound.

This series in a line: solubility in water. The conditions noted are these: 25° C. It is filed as physicochemical.

Molecules are shown by their SMILES. Values after ≈ are worked out from the molar mass of the structure shown.

`O=S(=O)(CCCC(F)(F)F)Oc1cccc(Oc2cccc3c2C[C@H](CO)C3)c1` [Compound (I), (−)-(R)-3-(2-Hydroxymethylindanyl-4-oxy)phenyl 4,4,4-trifluorobutane-1-sulfonate]: the solubility (usually the concentration that dissolves in the medium under given conditions) was determined as 2 µg/mL (≈ 4.65 µM).
